According to ChEMBL document CHEMBL4229406, “The tyrosinase inhibitory effects of isoxazolone derivatives with a (Z)-β-phenyl-α, β-unsaturated carbonyl scaffold” (Bioorg Med Chem, 2018):

Tests used:
[1] = Antioxidant activity assessed as DPPH-radical scavenging activity at 1 mM incubated for 30 mins under dark condition; assay type: functional
Tyrosinase = target: T1, Tyrosinase (Agaricus bisporus, UniProt O42713); assay: Inhibition of mushroom tyrosinase using L-tyrosine as substrate measured after 30 mins
T1 sequence (O42713 whole entry): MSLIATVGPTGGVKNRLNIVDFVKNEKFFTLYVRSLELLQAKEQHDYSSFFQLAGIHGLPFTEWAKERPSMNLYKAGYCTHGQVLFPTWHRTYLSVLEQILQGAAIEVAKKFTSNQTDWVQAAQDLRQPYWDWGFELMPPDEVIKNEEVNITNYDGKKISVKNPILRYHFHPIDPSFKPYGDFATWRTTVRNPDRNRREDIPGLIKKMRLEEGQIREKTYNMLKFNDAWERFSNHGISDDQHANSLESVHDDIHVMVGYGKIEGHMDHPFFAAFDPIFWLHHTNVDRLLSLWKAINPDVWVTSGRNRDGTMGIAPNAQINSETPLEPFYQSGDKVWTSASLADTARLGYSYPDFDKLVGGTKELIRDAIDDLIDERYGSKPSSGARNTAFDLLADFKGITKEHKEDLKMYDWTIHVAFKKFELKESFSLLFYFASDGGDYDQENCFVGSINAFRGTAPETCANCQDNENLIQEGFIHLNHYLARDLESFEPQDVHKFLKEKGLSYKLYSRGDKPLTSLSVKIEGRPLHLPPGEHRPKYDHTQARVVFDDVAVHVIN

[2] = target: T2, Tyrosinase (Agaricus bisporus) (UniProt O42713); details: 500 uM
T2 sequence (whole entry): T1 sequence (O42713 whole entry)
Description: Inhibition of mushroom tyrosinase at 500 uM using L-tyrosine as substrate measured after 30 mins relative to control

B16-F10 = assay: Antimelanogenic activity in mouse B16F10 cells assessed as inhibition of alpha-MSH-stimulated melanin synthesis measured after 24 hrs by ELISA; assay type: functional, cell-based
[3] = target: T3, Tyrosinase (Mus musculus) (UniProt P11344); assay: Inhibition of tyrosinase in alpha-MSH stimulated mouse B16F10 cells using L-dopa as substrate pretreated for 24 hrs followed by substrate addition and measured after 30 mins
T3 sequence (whole entry): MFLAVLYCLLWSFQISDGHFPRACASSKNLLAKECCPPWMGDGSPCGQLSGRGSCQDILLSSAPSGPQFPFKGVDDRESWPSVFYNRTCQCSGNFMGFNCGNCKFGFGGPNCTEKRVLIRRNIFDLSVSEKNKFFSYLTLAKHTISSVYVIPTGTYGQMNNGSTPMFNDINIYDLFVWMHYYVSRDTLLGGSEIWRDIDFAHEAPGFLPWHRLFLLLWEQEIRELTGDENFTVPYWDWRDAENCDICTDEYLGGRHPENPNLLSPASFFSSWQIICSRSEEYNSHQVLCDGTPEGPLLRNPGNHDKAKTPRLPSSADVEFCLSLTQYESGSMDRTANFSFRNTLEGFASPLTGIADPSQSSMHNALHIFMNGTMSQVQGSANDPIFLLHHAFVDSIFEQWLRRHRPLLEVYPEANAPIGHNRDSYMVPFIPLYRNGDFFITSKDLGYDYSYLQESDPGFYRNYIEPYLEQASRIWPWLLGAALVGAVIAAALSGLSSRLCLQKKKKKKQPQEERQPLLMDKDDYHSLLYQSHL

[4] = Cytotoxicity against mouse B16F10 cells assessed as cell viability at 5 uM after 24 hrs by MTT assay relative to control; assay type: cell-based, B16-F10; details: read-out: Activity
[5] = Cytotoxicity against mouse B16F10 cells assessed as cell viability at 10 uM after 24 hrs by MTT assay relative to control; assay type: cell-based, B16-F10; details: read-out: Activity
[6] = target: T2, Tyrosinase (Agaricus bisporus); assay: Competitive inhibition of mushroom tyrosinase using varying levels of L-tyrosine as substrate measured after 30 mins by Lineweaver-Burk plot analysis
[7] = Cytotoxicity against mouse B16F10 cells assessed as cell viability at 25 uM after 24 hrs by MTT assay relative to control; assay type: cell-based, B16-F10; details: read-out: Activity

Compound	Activity [1] [%]	other results
COc1cc(/C=C2\C(=O)ON=C2c2ccccc2)ccc1O	75.3	–
O=C1O[C@H]([C@@H](O)CO)C(O)=C1O	87.5	–
COc1ccc(/C=C2\C(=O)ON=C2c2ccccc2)cc1	47.2	–
COc1cc(/C=C2\C(=O)ON=C2c2ccccc2)cc(OC)c1O	94.8	–
O=C1ON=C(c2ccccc2)/C1=C/c1ccc(O)cc1O	46	IC50 (Tyrosinase): 32.1 µM
OC[C@H]1O[C@@H](Oc2ccc(O)cc2)[C@H](O)[C@@H](O)[C@@H]1O	–	inhibition [2]: 32.6%
COc1ccc(/C=C2\C(=O)ON=C2c2ccccc2)cc1O	54.2	–
O=C1ON=C(c2ccccc2)/C1=C/c1ccc(O)c(Br)c1	82.6	inhibition (B16-F10): Dose-dependent effect; inhibition [3]: Dose-dependent effect; viability at 24 h, 5 µM [4]: 100%; IC50 (Tyrosinase): 14.6 µM; viability at 24 h, 10 µM [5]: 98.7%; inhibition [6]: Dose-dependent effect; viability at 24 h, 25 µM [7]: 96.3%
O=C1ON=C(c2ccccc2)/C1=C/c1ccc(O)cc1	48.4	–
O=C1ON=C(c2ccccc2)/C1=C/c1ccccc1O	74.4	–
COc1ccc(/C=C2\C(=O)ON=C2c2ccccc2)c(OC)c1	41.8	–
COc1ccc(/C=C2\C(=O)ON=C2c2ccccc2)cc1OC	49.8	–
O=C1ON=C(c2ccccc2)/C1=C/c1ccc(O)c(O)c1	98.6	–
CCOc1ccc(/C=C2\C(=O)ON=C2c2ccccc2)cc1O	66.4	–
